Data set [1] in a line: Stability of glycidic ester in aqueous phosphate buffer with and without toluene. Format: physicochemical. The text has this: In the present invention, enzyme catalysts are present either dissolved or dispersed in an aqueous phase. Although the glycidic esters described herein are generally quite insoluble in water, the epoxide ring is susceptible to opening through nucleophilic attack by species such as hydroxide ions and water molecules, even in the absence of enzymes. […] Therefore, the use of an organic phase as a method for protecting the substrate from undesired transformations by water, hydroxide ions, or water-soluble buffer systems is a significant aspect of this invention. These experimental observations indicate the need for a biphasic system, and preferably a multiphase/extractive membrane reactor as described below, for efficiently conducting the enzyme-mediated resolution process disclosed herein.

A short description of data set [2]: Stability of GLOP / racemic ester in solvents on standing. In kind it is physicochemical. An excerpt:
At six days, only about half of the original amount of ester remained.

Data set [3] is described as follows: Non-enzymatic degradation of substrate ester in the presence of BSA. Format: physicochemical. An excerpt:
Following these experiments, another factor was then considered. As the interfacial activity of any compound will be affected by surfactants, for instance a protein, one could expect the presence of the enzyme to exert effects on the non-enzymatic nonspecific degradation of the substrate compound. To test this proposition, control experiments were run in which bovine serum albumin (BSA) was substituted for the hydrolytic enzyme in the reaction mixture. The chlorinated hydrocarbons and p-xylene were omitted for convenience.
Racemic 3-(4-methoxyphenyl) glycidic acid methyl ester (10.0 mmols, 2.08 g) was dissolved in 50 mL of the chosen organic solvent, and added to 50 mL of 200 mM sodium phosphate buffer at the chosen pH (7.0, 8.0, or 8.5) in a 250 mL shaker flask. Bovine serum albumin (BSA, 100 mg) was then added. The flask was closed, and agitated for 18 hours at ambient temperature (20-25° C.). The reaction mixture was then poured into a separatory funnel, the organic layer removed (except in the case of 1,4-dioxane, which is miscible in water), and the aqueous layer washed with diethyl ether. The organic layers were then combined, backwashed with water, and dried over anhydrous magnesium sulfate. The organic solvent was then removed under reduced pressure, and the recovered ester weighed to determine the extent of non-enzymatic degradation.

The nature of data set [4]: Loss of compound A on extraction with 10% bisulfite solution. Format: physicochemical. The conditions noted are these: diethyl ether solution extracted once with 10% bisulfite solution. The procedure: 2.0 g of pure, racemic compound A were dissolved in 200 mls of diethyl ether. This organic solution was then extracted once with 250 mls of a 10% bisulfite solution, washed with 250 mls water, dried over magnesium sulphate, and evaporated to leave 1.8 g of racemic compound A, indicating a 10% loss of material. Recovery of material in the absence of the bisulfite wash was nearly quantitative.

Data set [5] is described as follows: Solubility of racemic ester in toluene. The conditions noted are these: 4° C. Format: physicochemical. As for the experimental part: The amount of toluene required to dissolve the racemic ester at 4° C. was determined by dividing the weight of racemic ester by the solubility of the ester in toluene at this temperature (˜0.13 g of racemic ester/g of toluene). The weight of toluene required was then 19.07/0.13=146.7 g. The two organic fractions were combined and toluene was then evaporated until the total weight of toluene plus ester was equal to 146.7+109.5 or 256.2 g. Afterward, the organic concentrate containing ester and toluene was cooled to 4° C. for 18 hours in order to crystallize the (2R,3S) enantiomer of the ester. The precipitated crystals were then filtered and analyzed, while the mother liquor was saved for recycling. The amount of solids collected was 91.9 g. […] The yield of resolved ester was 38.6%.

The nature of data set [6]: Degradation rate of racemic ester in membrane reactor system, toluene vs MIBK. Particulars: organic solution in contact with 50 mM phosphate buffer pH 8.0, membrane reactor. Format: physicochemical. As for the experimental part: In a separate experiment, the degradation rate of racemic ester was measured in a membrane reactor system using two kinds of solvent, toluene and methyl isobutyl ketone (MIBK), at different concentrations of glycidyl ester. These organic solutions were brought into contact separately with a 50 mM phosphate buffer (pH 8.0) to simulate enzymatic resolution conditions. The amount of ester present in the organic solutions was monitored over several hours.

A further data set has as its system Lipase OF. Briefly: Degree of inhibition by reaction products: initial rate of hydrolysis of compound A by Lipase OF. Format: biochemical, Candida cylindracea. Particulars: pH 8.0, 400 mM compound A in toluene, in the presence of 1 mmole (50 mM) of the compound, A alone = 1.0. The procedure: (§1) A reaction mixture composed of 12 mls of 50 mM sodium phosphate buffer at pH 8.0 and 8 mls of a 400 mM toluene solution of pure, racemic compound A, was rapidly stirred and the reaction rate monitored by a device known as a “pH stat”. A given amount of a given commercial enzyme preparation was then added to the reaction mixture, and the initial rate of hydrolysis calculated. The reaction was repeated in the presence of 1 mmole (50 mM) of compound C, in the presence of 1 mmole (50 mM) of compound D, and in the presence of 1 mmole (50 mM) of compound E. The results are tabulated in Table 11.

Another data set relates to Lipase MAP. Briefly: Degree of inhibition by reaction products: initial rate of hydrolysis of compound A by Lipase MAP. Format: biochemical. Particulars: pH 8.0, 400 mM compound A in toluene, in the presence of 1 mmole (50 mM) of the compound, A alone = 1.0. As for the experimental part: as §1
The next data set addresses T1, Lipase P (Burkholderia cepacia, UniProt P22088).
T1 construct: purchased Amano
Kind of data set: Degree of inhibition by reaction products: initial rate of hydrolysis of compound A by Lipase P. In kind it is biochemical. Particulars: pH 8.0, 400 mM compound A in toluene, in the presence of 1 mmole (50 mM) of the compound, A alone = 1.0. As for the experimental part: as §1

Another data set concerns the target T2, Palatase M (Rhizomucor miehei, UniProt P19515).
T2 construct: purchased Novo
T2 sequence (P19515 95-363): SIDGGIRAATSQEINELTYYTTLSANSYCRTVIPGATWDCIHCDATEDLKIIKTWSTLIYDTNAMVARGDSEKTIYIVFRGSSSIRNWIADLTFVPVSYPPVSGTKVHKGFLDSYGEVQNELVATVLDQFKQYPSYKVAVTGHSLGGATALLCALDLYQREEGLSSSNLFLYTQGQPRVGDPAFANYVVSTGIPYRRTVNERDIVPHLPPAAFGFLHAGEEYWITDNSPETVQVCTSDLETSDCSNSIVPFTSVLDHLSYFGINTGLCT
Briefly: Degree of inhibition by reaction products: initial rate of hydrolysis of compound A by Palatase M. Format: biochemical. The conditions noted are these: pH 8.0, 400 mM compound A in toluene, in the presence of 1 mmole (50 mM) of the compound, A alone = 1.0. As for the experimental part: as §1

For data set [7] the following is noted: aqueous solution; cited from earlier work.

T1 sequence (P22088 45-364): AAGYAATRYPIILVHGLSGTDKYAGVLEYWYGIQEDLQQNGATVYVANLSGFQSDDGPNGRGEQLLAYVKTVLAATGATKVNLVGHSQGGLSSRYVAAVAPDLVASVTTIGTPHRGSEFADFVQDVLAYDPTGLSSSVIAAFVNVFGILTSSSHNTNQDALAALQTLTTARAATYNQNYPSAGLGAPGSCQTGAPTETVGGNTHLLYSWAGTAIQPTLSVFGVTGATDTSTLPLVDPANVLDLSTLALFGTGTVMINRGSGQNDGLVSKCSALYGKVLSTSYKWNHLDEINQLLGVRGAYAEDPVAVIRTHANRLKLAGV

Take `COC(=O)[C@@H]1O[C@H]1c1ccc(OC)cc1` (relative stereo) [Compound A, trans-3-(4-methoxyphenyl)glycidic acid methyl ester]: the “Stability in aqueous buffer” value in data set [1] (aqueous sodium phosphate buffer pH 7.0, 18 hours, ambient temperature, no organic solvent or enzyme) was “loss of glycidic ester”. Moreover, the Glycidic ester recovered in [1] (toluene in 1-to-1 phase ratio with pH 7.0 buffer, 18 hours) was determined as 100%. In data set [2] (saturated methanol solution, room temperature, six days), the “Original amount of ester remaining” value is on record as “about half”. Also, the “Original amount of ester degraded” value in [2] (saturated methanol solution, room temperature, two days, HPLC) is given as “about 9%”. Further, the Percent degradation in data set [3] (1,4-dioxane, pH 7.0, 18 hours ambient) was found to be 40.9%; in data set [3] (1,4-dioxane, pH 8.0, 18 hours ambient), 21.6%; in [3] (MIBK, pH 8.0, 18 hours ambient), 15.0%; in data set [3] (MIBK, pH 8.5, 18 hours ambient), 12.0%; in data set [3] (MetBuO, pH 7.0, 18 hours ambient), 41.8%; in data set [3] (MetBuO, pH 8.0, 18 hours ambient) it was 22.1%. For the same compound, the Percent degradation in data set [3] (benzene, pH 7.0, 18 hours ambient) is given as 38.5%; in data set [3] (benzene, pH 8.0, 18 hours ambient), 14.4%; in data set [3] (cyclohexane, pH 7.0, 18 hours ambient) it was 71.6%; in data set [3] (cyclohexane, pH 8.0, 18 hours ambient), 38.5%; in data set [3] (toluene, pH 8.0, 18 hours ambient) it was 14.3%; in data set [3] (toluene, pH 8.5, 18 hours ambient), 19.1%. The same compound came in with a Loss of material in [4] of 10%. Besides, the “Solubility of the ester in toluene” value in data set [5] is ~0.13 g of racemic ester/g of toluene. For the same compound, the “Degradation rate constant in MIBK relative to toluene” value in [6] is reported as “about 3 times”.
Consider `COc1ccc(CC=O)cc1` [C, 4-methoxyphenylacetaldehyde], for which the “Relative Initial Rates” value came to 0.63 in the data set on Lipase OF, 0.73 in the data set with Lipase MAP, 1.00 at Lipase P and 0.38 at Palatase M.
For `COc1ccc(CC(=O)O)cc1` [D, 4-methoxyphenylacetic acid], the “Relative Initial Rates” value with Lipase OF is on record as 1.18; in the data set with Lipase MAP, 0.99; on Lipase P it was 1.07; on Palatase M, more than 1.0.
Take `O=S(O)O` [bisulfite anion]: the pKa result in data set [7] was “approximately 7”.
On to `COC(=O)[C@@H]1O[C@H]1c1ccc(OC)cc1` [resolved GLOP, (2R,3S)-3-(4-methoxyphenyl)glycidic acid methyl ester], for which the “Stability in solution” value in data set [2] (aromatic solvent, ambient temperature, over days) is recorded as “stable against the loss of material or optical activity”.

Source of the values: patent US6521445B1, “Process for preparing optically active glycidate esters” (Sepracor, Inc., priority 1988, dated 2003).
